The source of these data is ChEMBL document CHEMBL4417631, “Oral peptide inhibitors of interleukin-23 receptor and their use to treat inflammatory bowel diseases” (2017).

The structures appear in SMILES notation.

In this assay the target is T1, Interleukin-23 receptor (Homo sapiens, UniProt Q5VWK5).
T1 sequence (Q5VWK5 whole entry): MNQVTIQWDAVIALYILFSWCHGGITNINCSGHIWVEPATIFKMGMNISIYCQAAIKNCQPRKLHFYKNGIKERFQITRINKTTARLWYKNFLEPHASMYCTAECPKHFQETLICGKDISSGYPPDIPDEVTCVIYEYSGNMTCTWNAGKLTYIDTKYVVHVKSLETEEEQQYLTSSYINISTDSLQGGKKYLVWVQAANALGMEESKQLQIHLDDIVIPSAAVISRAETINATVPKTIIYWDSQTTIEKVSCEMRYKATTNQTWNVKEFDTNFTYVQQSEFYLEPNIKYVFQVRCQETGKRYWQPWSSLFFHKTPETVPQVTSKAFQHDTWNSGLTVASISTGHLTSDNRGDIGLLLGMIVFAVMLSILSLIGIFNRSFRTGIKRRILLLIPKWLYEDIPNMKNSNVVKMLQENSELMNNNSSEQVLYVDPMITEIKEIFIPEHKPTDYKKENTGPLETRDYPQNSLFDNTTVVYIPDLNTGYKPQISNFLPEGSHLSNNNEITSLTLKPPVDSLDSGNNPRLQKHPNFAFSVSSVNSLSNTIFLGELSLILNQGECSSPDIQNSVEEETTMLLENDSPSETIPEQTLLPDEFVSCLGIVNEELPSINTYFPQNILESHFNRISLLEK
Put plainly: Inhibition of interleukin-23 receptor in human DB cells assessed as reduction in IL-23-stimulated STAT3 phosphorylation incubated for 30 mins by HTRF assay. The assay is classed as cell-based. (Time-resolved FRET reads energy transfer from a long-lived donor to a nearby acceptor.)
Regarding `CC(=O)NCCCC[C@H](NC(=O)C(C)(C)NC(=O)[C@H](Cc1ccc2ccccc2c1)NC(=O)[C@H](Cc1ccc(OCCN)cc1)NC(=O)[C@@H](NC(=O)[C@H](CCC(N)=O)NC(=O)[C@H](Cc1c[nH]c2ccccc12)NC(=O)[C@@H](NC(=O)[C@H](CCC(N)=O)NC(=O)[C@@H](NC(=O)[C@H](Cc1ccc2ccccc2c1)NC(C)=O)C(C)(C)S)[C@@H](C)O)C(C)(C)S)C(=O)N[C@@H](CC(N)=O)C(=O)N[C@@H](CC(N)=O)C(N)=O`, the IC50 – broadly, the concentration at which inhibition is half-maximal – is less than 10 nM.
With `CC(=O)N[C@H]1CCSC[C@@H](C(=O)N[C@H]2Cc3ccc(cc3)OCCNC(=O)C[C@@H](C(=O)NCC(N)=O)NC(=O)[C@H](CCC(N)=O)NC(=O)[C@](C)(CC(C)C)NC(=O)[C@H](Cc3ccc4ccccc4c3)NC2=O)NC(=O)[C@H](CCC(N)=O)NC(=O)[C@H](Cc2c[nH]c3ccccc23)NC(=O)[C@H]([C@@H](C)O)NC(=O)[C@H](CCC(N)=O)NC1=O` the figure was 100 to 1000 nM; with `COc1ccc(C[C@H](NC(=O)[C@@H](NC(=O)[C@H](CCC(N)=O)NC(=O)[C@H](Cc2c[nH]c3ccccc23)NC(=O)[C@@H](NC(=O)[C@H](CC(N)=O)NC(=O)[C@@H](NC(C)=O)C(C)(C)S)[C@@H](C)O)C(C)(C)S)C(=O)N[C@@H](Cc2ccc3ccccc3c2)C(=O)NC(C)(C)C(=O)N[C@@H](CCCCNC(C)=O)C(=O)N[C@@H](CC(N)=O)C(=O)N[C@@H](C)C(N)=O)cc1`, less than 10 nM.
In the case of `CCCCCCCC[C@H](NC(=O)[C@H](Cc1c[nH]c2ccccc12)NC(=O)[C@H](Cc1ccc(O)cc1)NC(=O)[C@H](CS)NC(=O)[C@H](CCC(N)=O)NC(=O)[C@H](Cc1c[nH]c2ccccc12)NC(=O)[C@@H](NC(=O)[C@H](CCC(N)=O)NC(=O)[C@H](CS)NC(C)=O)[C@@H](C)O)C(=O)N[C@@H](CCC(=O)O)C(=O)N[C@@H](CC(N)=O)C(=O)NCC(N)=O` it was 76 nM.
In the case of `CC(=O)NCCCC[C@H](NC(=O)C(C)(C)NC(=O)[C@H](Cc1ccc2ccccc2c1)NC(=O)[C@H](Cc1ccc(OCCN)cc1)NC(=O)[C@@H](NC(=O)[C@H](CCC(N)=O)NC(=O)[C@H](Cc1c[nH]c2ccccc12)NC(=O)[C@@H](NC(=O)[C@@H](NC(=O)[C@@H](NC(C)=O)C(C)(C)S)[C@@H](C)O)[C@@H](C)O)C(C)(C)S)C(=O)N[C@@H](CC(N)=O)C(=O)N[C@@H](CCC(N)=O)C(N)=O` it was less than 10 nM; in that of `COc1ccc(C[C@H](NC(=O)[C@@H](NC(=O)[C@H](CCC(N)=O)NC(=O)[C@H](Cc2c[nH]c3ccccc23)NC(=O)[C@@H](NC(=O)[C@H](CCC(N)=O)NC(=O)[C@@H](NC(C)=O)C(C)(C)S)[C@@H](C)O)C(C)(C)S)C(=O)N[C@@H](Cc2ccc3ccccc3c2)C(=O)N[C@](C)(C(=O)N[C@@H](CCCCNC(C)=O)C(=O)N[C@@H](CC(N)=O)C(=O)N[C@@H](CC(N)=O)C(=O)N[C@@H](N)CCCCN)C(C)C)cc1`, less than 10 nM.
For the compound `COc1ccc(C[C@H](NC(=O)[C@@H](NC(=O)[C@H](CCC(N)=O)NC(=O)[C@H](Cc2c[nH]c3ccccc23)NC(=O)[C@@H](NC(=O)[C@H](CCC(N)=O)NC(=O)[C@@H](NC(C)=O)C(C)(C)S)[C@@H](C)O)C(C)(C)S)C(=O)N[C@@H](Cc2ccc3ccccc3c2)C(=O)NC(C)(C)C(=O)N[C@@H](CCCCNC(C)=O)C(=O)N[C@@H](CC(N)=O)C(=O)N[C@@H](CCC(N)=O)C(N)=O)cc1`, the IC50 was less than 10 nM.
Turning to `COc1ccc(C[C@H](NC(=O)[C@@H](NC(=O)[C@H](CCC(N)=O)NC(=O)[C@H](Cc2c[nH]c3ccccc23)NC(=O)[C@@H](NC(=O)[C@H](CCC(N)=O)NC(=O)[C@@H](NC(C)=O)C(C)(C)S)[C@@H](C)O)C(C)(C)S)C(=O)N[C@@H](Cc2ccc3ccccc3c2)C(=O)N[C@@H](CCC(C)C)C(=O)N[C@@H](CCCCNC(C)=O)C(=O)N[C@@H](CC(N)=O)C(=O)NCCC(N)=O)cc1`, the IC50 is less than 10 nM.
With `COc1ccc(C[C@H](NC(=O)[C@@H](NC(=O)[C@H](CCC(N)=O)NC(=O)[C@H](Cc2c[nH]c3ccccc23)NC(=O)[C@@H](NC(=O)[C@H](CCC(N)=O)NC(=O)[C@@H](NC(C)=O)C(C)(C)S)[C@@H](C)O)C(C)(C)S)C(=O)N[C@@H](Cc2ccc3ccccc3c2)C(=O)NC(C)(C)C(=O)N[C@@H](CCCCNC(C)=O)C(=O)N[C@@H](CC(N)=O)C(=O)NCCC(N)=O)cc1` the figure was less than 10 nM; with `CC(=O)NCCCC[C@H](NC(=O)[C@H](CCCCN)NC(=O)[C@H](Cc1ccc2ccccc2c1)NC(=O)[C@H](Cc1ccc(OCCNC(C)=O)cc1)NC(=O)[C@@H](NC(=O)[C@H](CCC(N)=O)NC(=O)[C@H](Cc1c[nH]c2ccccc12)NC(=O)[C@@H](NC(=O)[C@H](CCC(N)=O)NC(=O)[C@@H](NC(C)=O)C(C)(C)S)[C@@H](C)O)C(C)(C)S)C(=O)N[C@@H](CC(N)=O)C(=O)N[C@@H](CC(N)=O)C(N)=O`, 25 to 100 nM; with `COc1ccc(C[C@H](NC(=O)[C@@H](NC(=O)[C@H](CCC(N)=O)NC(=O)[C@H](Cc2c[nH]c3ccccc23)NC(=O)[C@@H](NC(=O)[C@H](CCC(N)=O)NC(=O)[C@@H](NC(C)=O)C(C)(C)S)[C@@H](C)O)C(C)(C)S)C(=O)N[C@@H](Cc2ccc3ccccc3c2)C(=O)NC(C)(C)C(=O)N[C@@H](CCCCNC(C)=O)C(=O)N[C@@H](CC(N)=O)C(=O)N[C@@H](C)C(N)=O)cc1`, less than 10 nM.
With `CC(=O)NCCCC[C@H](NC(=O)C(C)(C)NC(=O)[C@H](Cc1ccc2ccccc2c1)NC(=O)[C@H](Cc1ccc(OCCN)cc1)NC(=O)[C@@H](NC(=O)[C@H](CCC(N)=O)NC(=O)[C@H](Cc1c[nH]c2ccccc12)NC(=O)[C@@H](NC(=O)[C@H](CCC(N)=O)NC(=O)[C@@H](NC(=O)[C@H](Cc1ccccc1)NC(C)=O)C(C)(C)S)[C@@H](C)O)C(C)(C)S)C(=O)N[C@@H](CC(N)=O)C(=O)N[C@@H](CC(N)=O)C(N)=O` the figure was less than 10 nM; with `CC(=O)NCCCC[C@H](NC(=O)C(C)(C)NC(=O)[C@H](Cc1ccc2ccccc2c1)NC(=O)[C@H](Cc1ccc(OCCN)cc1)NC(=O)[C@@H](NC(=O)[C@H](CCC(N)=O)NC(=O)[C@H](Cc1c[nH]c2ccccc12)NC(=O)[C@@H](NC(=O)[C@H](CCC(N)=O)NC(=O)[C@@H](NC(=O)[C@@H](CCCNC(=N)N)NC(C)=O)C(C)(C)S)[C@@H](C)O)C(C)(C)S)C(=O)N[C@@H](CC(N)=O)C(=O)N[C@@H](CC(N)=O)C(N)=O`, less than 10 nM.
In the case of `CC(=O)NCCCC[C@H](NC(=O)[C@](C)(CCCCN)NC(=O)[C@H](Cc1ccc2ccccc2c1)NC(=O)[C@H](Cc1ccc(OCCN)cc1)NC(=O)[C@@H]1CSCC[C@H](NC(C)=O)C(=O)N[C@@H](CCC(N)=O)C(=O)N[C@@H]([C@@H](C)O)C(=O)N[C@@H](Cc2c[nH]c3ccccc23)C(=O)N[C@@H](CCC(N)=O)C(=O)N1)C(=O)N[C@@H](CC(=O)NCCCCN)C(=O)NCC(N)=O` it was 25 to 100 nM; in that of `CC(=O)NCCCC[C@H](NC(=O)[C@@](C)(NC(=O)[C@H](Cc1ccc2ccccc2c1)NC(=O)[C@H](Cc1ccc(C(N)=O)cc1)NC(=O)[C@@H](NC(=O)[C@H](CCC(N)=O)NC(=O)[C@H](Cc1c[nH]c2ccccc12)NC(=O)[C@@H](NC(=O)[C@H](CCC(N)=O)NC(=O)[C@@H](NC(=O)[C@@H](CCCCN)NC(C)=O)C(C)(C)S)[C@@H](C)O)C(C)(C)S)C(C)C)C(=O)N[C@@H](CC(N)=O)C(=O)N[C@@H](CC(N)=O)C(N)=O`, 1000 to 10000 nM.
